By EC50 is commonly meant the concentration needed to bring the measured effect to its halfway point.

What all share (type): cell-based
Experiment [1] has as its system NCI-H524 human small cell lung cancer cells. Put plainly: H524 assay: inhibition of cell proliferation (CellTiter Glo). As to conditions: 2 h treatment, washout, additional 70 h incubation. An outline of the steps:
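NCI-H524 cells were exposed for 2 h to NDC in an 11-point two-fold series starting at 1 uM. The drug was then washed out and cells grew a further 70 h. CellTiter Glo luminescence gave % inhibition versus untreated control, and IC50 came from a four-parameter nonlinear regression.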
For orientation: In ATP-based viability assays light output follows the ATP content of the culture.

In the next experiment the target is T1, SST2 (Homo sapiens, UniProt P30874).
T1 construct: host or cells: PathHunter CHO-K1 SST2 cells
Put plainly: PathHunter CHO-K1 SST2 Internalization Assay. As to conditions: PathHunter CHO-K1 SST2 cells; 90 min at 37 C; luminescence; read-out: Internalization EC50. The method in brief: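 CHO-K1 cells expressing human SST2, 2500 cells/well, grown 48 h, then exposed 90 min at 37 C to 11-point 1:3 NDC dilutions (final top 10 uM). Beta-Glo luminescence after 60 min at room temperature; four-parameter IC50, duplicate mean, background-corrected.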

The target in experiment [2] is T2, human somatostatin receptor subtype 2 (Homo sapiens, UniProt P30874).
T2 construct: expressed in transfected cells
Put plainly: Functional assay for SSTR2 agonists (HTRF cAMP). Particulars: CHO-K1 cells stably expressing human SST2; NKH477-stimulated cAMP; 20 min at 37 C; read-out: hSST2 cAMP Avg EC50. The method in brief: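 CHO-K1 cells stably expressing human SSTR2 treated with compound (typically 0-10,000 nM final) for 20 min at 37 °C. Lysate cAMP measured by HTRF (665/620 nm ratio), converted via standard curve; EC50 from cAMP vs concentration.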
For orientation: Time-resolved FRET reads energy transfer from a long-lived donor to a nearby acceptor.

T1 sequence (P30874 whole entry): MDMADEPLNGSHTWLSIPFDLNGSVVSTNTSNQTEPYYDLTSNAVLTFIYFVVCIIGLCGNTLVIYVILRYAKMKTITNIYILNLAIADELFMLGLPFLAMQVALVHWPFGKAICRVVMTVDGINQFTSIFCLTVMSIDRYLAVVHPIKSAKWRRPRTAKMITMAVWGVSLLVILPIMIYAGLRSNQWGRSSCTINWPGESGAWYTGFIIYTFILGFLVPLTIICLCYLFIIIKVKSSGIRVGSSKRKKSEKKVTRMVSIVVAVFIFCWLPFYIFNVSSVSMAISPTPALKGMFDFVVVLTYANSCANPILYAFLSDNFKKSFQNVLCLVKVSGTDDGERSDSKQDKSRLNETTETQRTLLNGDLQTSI
T2 sequence (P30874 whole entry): as above

Consider `CC[C@H](C)[C@@H]([C@@H](CC(=O)N1CCC[C@H]1[C@H](OC)[C@@H](C)C(=O)N[C@H](C)[C@@H](O)c1ccccc1)OC)N(C)C(=O)[C@@H](NC(=O)[C@H](C(C)C)N(C)C(=O)OCc1ccc(NC(=O)[C@H](CCCNC(N)=O)NC(=O)[C@@H](NC(=O)c2cc(NCCCC(=O)N(C)CC(=O)NCCNc3ncc(-c4cc(C)cc(F)c4)c(N4CCC(N)CC4)c3-c3nc4ccc(Cl)cc4[nH]3)cc(C(=O)NC[C@@H](N)C(=O)O)c2)C(C)C)cc1)C(C)C` [Compound 172], for which the EC50 in experiment [1] came to 22 nM; on SST2, 6.3 nM; in experiment [2], 0.33 nM.
On to `CC[C@H](C)[C@@H]([C@@H](CC(=O)N1CCC[C@H]1[C@H](OC)[C@@H](C)C(=O)N[C@H](C)[C@@H](O)c1ccccc1)OC)N(C)C(=O)[C@@H](NC(=O)[C@H](C(C)C)N(C)C(=O)OCc1ccc(NC(=O)[C@H](CCCNC(N)=O)NC(=O)[C@@H](NC(=O)c2ccc(NC(=O)CCOCCC(=O)NCCNc3ncc(-c4cc(C)cc(F)c4)c(N4CCC(N)CC4)c3-c3nc4ccc(Cl)cc4[nH]3)cc2O[C@@H]2OC(C(=O)O)[C@@H](O)[C@H](O)[C@H]2O)C(C)C)cc1)C(C)C` (stereo partly drawn) [Compound 182], for which the EC50 in experiment [1] was 2300 nM; at SST2 it was 11 nM; in experiment [2], 0.093 nM.
Turning to `CC[C@H](C)[C@@H]([C@@H](CC(=O)N1CCC[C@H]1[C@H](OC)[C@@H](C)C(=O)N[C@H](C)[C@@H](O)c1ccccc1)OC)N(C)C(=O)[C@@H](NC(=O)[C@H](C(C)C)N(C)C(=O)OCc1ccc(NC(=O)[C@H](C)NC(=O)[C@@H](NC(=O)CCOCCC(=O)N(C)CC(=O)NCCNc2ncc(-c3cc(C)cc(F)c3)c(N3CCC(N)CC3)c2-c2nc3ccc(Cl)cc3[nH]2)C(C)C)c(O[C@@H]2O[C@H](C(=O)NCCS(=O)(=O)O)[C@@H](O)[C@H](O)[C@H]2O)c1)C(C)C` [Compound 51], the concentration giving a half-maximal response (EC50) in experiment [1] is 28 nM; on SST2, 4.4 nM; in experiment [2], 0.092 nM.
As for `CC[C@H](C)[C@@H]([C@@H](CC(=O)N1CCC[C@H]1[C@H](OC)[C@@H](C)C(=O)N[C@H](C)[C@@H](O)c1ccccc1)OC)N(C)C(=O)[C@@H](NC(=O)[C@H](C(C)C)N(C)C(=O)OCc1ccc(NC(=O)[C@H](CCCNC(N)=O)NC(=O)[C@@H](NC(=O)c2cc(NCCOCCC(=O)NCCNc3ncc(-c4cc(C)cc(F)c4)c(N4CCC(N)CC4)c3-c3nc4ccc(F)cc4[nH]3)cc(C(=O)NCC(=O)O)c2)C(C)C)cc1)C(C)C` [Compound 165], the results for the EC50 (in experiment [1]; on SST2; in experiment [2]) were 90 nM, 10 nM and 0.5 nM, respectively.
The like results for `CC[C@H](C)[C@@H]([C@@H](CC(=O)N1CCC[C@H]1[C@H](OC)[C@@H](C)C(=O)N[C@H](C)[C@@H](O)c1ccccc1)OC)N(C)C(=O)[C@@H](NC(=O)[C@H](C(C)C)N(C)C(=O)OCc1ccc(NC(=O)[C@H](CCCNC(N)=O)NC(=O)[C@@H](NC(=O)C[C@@H](N)C(=O)NCCOCCOCCC(=O)NCCNc2ncc(-c3cc(C)cc(F)c3)c(N3CCC(N)CC3)c2-c2nc3ccc(Cl)cc3[nH]2)C(C)C)c(O[C@@H]2O[C@H](C(=O)O)[C@@H](O)[C@H](O)[C@H]2O)c1)C(C)C` [Compound 137] were, in that order, 850 nM, 2.8 nM and 0.27 nM.
As to `CC[C@H](C)[C@@H]([C@@H](CC(=O)N1CCC[C@H]1[C@H](OC)[C@@H](C)C(=O)N[C@H](C)[C@@H](O)c1ccccc1)OC)N(C)C(=O)[C@@H](NC(=O)[C@H](C(C)C)N(C)C(=O)OCc1ccc(NC(=O)[C@H](C)NC(=O)[C@@H](NC(=O)CCOCCN2CCC(C(=O)NCCNc3ncc(-c4cc(C)cc(F)c4)c(N4CCC(N)CC4)c3-c3nc4ccc(Cl)cc4[nH]3)CC2)C(C)C)c(O[C@@H]2O[C@H](C(=O)O)[C@@H](O)[C@H](O)[C@H]2O)c1)C(C)C` [Compound 93], the EC50 turned out to be 120 nM in experiment [1], 33 nM on SST2 and 0.28 nM in experiment [2].
`CC[C@H](C)[C@@H]([C@@H](CC(=O)N1CCC[C@H]1[C@H](OC)[C@@H](C)C(=O)N[C@H](C)[C@@H](O)c1ccccc1)OC)N(C)C(=O)[C@@H](NC(=O)[C@H](C(C)C)N(C)C(=O)OCc1ccc(NC(=O)[C@H](C)NC(=O)[C@@H](NC(=O)[C@H](CCc2nnn[nH]2)NC(=O)CCOCCC(=O)NCCNc2ncc(-c3cc(C)cc(F)c3)c(N3CCC(N)CC3)c2-c2nc3ccc(Cl)cc3[nH]2)C(C)C)cc1C(=O)NCCN)C(C)C` [Compound 66]: the concentration for a half-maximal effect (EC50) in experiment [1] was found to be 6.8 nM; at SST2, 5.6 nM; in experiment [2] it was 0.14 nM.
For the compound `CC[C@H](C)[C@@H]([C@@H](CC(=O)N1CCC[C@H]1[C@H](OC)[C@@H](C)C(=O)N[C@H](C)[C@@H](O)c1ccccc1)OC)N(C)C(=O)[C@@H](NC(=O)[C@H](C(C)C)N(C)C(=O)OCc1ccc(NC(=O)[C@H](CCCNC(N)=O)NC(=O)[C@@H](NC(=O)[C@H](CCC(=O)O)NC(=O)CCOCCC(=O)NCCNc2ncc(-c3cc(C)cc(F)c3)c(N3CCC(N)CC3)c2-c2nc3ccc(Cl)cc3[nH]2)C(C)C)cc1C(=O)NCCN(C)C)C(C)C` [Compound 64], the EC50 is 11 nM in experiment [1], 2.9 nM on SST2 and 0.12 nM in experiment [2].
In the case of `CC[C@H](C)[C@@H]([C@@H](CC(=O)N1CCC[C@H]1[C@H](OC)[C@@H](C)C(=O)N[C@H](C)[C@@H](O)c1ccccc1)OC)N(C)C(=O)[C@@H](NC(=O)[C@H](C(C)C)N(C)C(=O)OCc1ccc(NC(=O)[C@H](CCCNC(N)=O)NC(=O)[C@@H](NC(=O)c2cc(NCCOCCOCCOCCOCCC(=O)NCCNc3ncc(-c4cc(C)cc(F)c4)c(N4CCC(N)CC4)c3-c3nc4ccc(Cl)cc4[nH]3)cc(C(=O)NCC(=O)O)c2)C(C)C)cc1)C(C)C` [Compound 144], the EC50 in experiment [1] worked out at 81 nM; on SST2, 21 nM; in experiment [2], 0.25 nM.
As to `CC[C@H](C)[C@@H]([C@@H](CC(=O)N1CCC[C@H]1[C@H](OC)[C@@H](C)C(=O)N[C@H](C)[C@@H](O)c1ccccc1)OC)N(C)C(=O)[C@@H](NC(=O)[C@H](C(C)C)N(C)C(=O)OCc1ccc(NC(=O)[C@H](CCCNC(N)=O)NC(=O)[C@@H](NC(=O)C[C@@H](N)C(=O)NCCOCCC(=O)NCCNc2ncc(-c3cc(C)cc(F)c3)c(N3CCC(N)CC3)c2-c2nc3ccc(Cl)cc3[nH]2)C(C)C)c(O[C@@H]2O[C@H](C(=O)NCC(=O)O)[C@@H](O)[C@H](O)[C@H]2O)c1)C(C)C` [Compound 35], the results for the EC50 (in experiment [1]; at SST2; in experiment [2]) were 16 nM, 5 nM and 0.1 nM, respectively.
With `CC[C@H](C)[C@@H]([C@@H](CC(=O)N1CCC[C@H]1[C@H](OC)[C@@H](C)C(=O)N[C@H](C)[C@@H](O)c1ccccc1)OC)N(C)C(=O)[C@@H](NC(=O)[C@H](C(C)C)N(C)C(=O)OCc1ccc(NC(=O)[C@H](CCCNC(N)=O)NC(=O)[C@@H](NC(=O)[C@H](CCC(=O)O)NC(=O)CCOCCC(=O)NCCNc2ncc(-c3cc(C)cc(F)c3)c(N3CCC(N)CC3)c2-c2nc3ccc(Cl)cc3[nH]2)C(C)C)c(C)c1)C(C)C` [Compound 15], the EC50 was determined as 91 nM in experiment [1], 17 nM on SST2 and 0.27 nM in experiment [2].
Turning to `CC[C@H](C)[C@@H]([C@@H](CC(=O)N1CCC[C@H]1[C@H](OC)[C@@H](C)C(=O)N[C@H](C)[C@@H](O)c1ccccc1)OC)N(C)C(=O)[C@@H](NC(=O)[C@H](C(C)C)N(C)C(=O)OCc1ccc(NC(=O)[C@H](CCCNC(N)=O)NC(=O)[C@@H](NC(=O)[C@H](CCCO)NC(=O)CCOCCC(=O)NCCNc2ncc(-c3cc(C)cc(F)c3)c(N3CCC(N)CC3)c2-c2nc3cc(Cl)ccc3[nH]2)C(C)C)c(O[C@@H]2O[C@H](C(=O)NCC(=O)O)[C@@H](O)[C@H](O)[C@H]2O)c1)C(C)C` [Compound 213], the concentration for a half-maximal effect (EC50) was determined as 9.2 nM in experiment [1], 3.4 nM on SST2 and 0.089 nM in experiment [2].
`CC[C@@H](C)[C@H]([C@H](CC(=O)N1CCCC1[C@@H](OC)[C@H](C)C(=O)N[C@@H](C)[C@H](O)c1ccccc1)OC)N(C)C(=O)[C@H](NC(=O)[C@@H](C(C)C)N(C)C(=O)OCc1ccc(NC(=O)[C@H](C)NC(=O)[C@H](NC(=O)CCOCCC(=O)NCCNc2ncc(-c3cc(C)cc(F)c3)c(N3CCC(N)CC3)c2-c2nc3ccc(Cl)cc3[nH]2)C(C)C)c(O[C@H]2O[C@@H](C(=O)O)[C@H](O)[C@@H](O)[C@@H]2O)c1)C(C)C` (stereo partly drawn) [Compound 240]: the EC50 was 3100 nM in experiment [1], 6 nM on SST2 and 0.12 nM in experiment [2].
With `CC[C@H](C)[C@@H]([C@@H](CC(=O)N1CCC[C@H]1[C@H](OC)[C@@H](C)C(=O)N[C@H](C)[C@@H](O)c1ccccc1)OC)N(C)C(=O)[C@@H](NC(=O)[C@H](C(C)C)N(C)C(=O)OCc1ccc(NC(=O)[C@H](C)NC(=O)[C@@H](NC(=O)CCOCCC(=O)N(C)CC(=O)NCCNc2ncc(-c3cc(C)cc(F)c3)c(N3CCC(N)CC3)c2-c2nc3ccc(Cl)cc3[nH]2)C(C)C)c(O[C@@H]2O[C@H](C(=O)O)[C@@H](O)[C@H](O)[C@H]2O)c1)C(C)C` [Compound 134], the EC50 in experiment [1] is 1200 nM; at SST2, 2.1 nM; in experiment [2], 0.11 nM.
For the compound `CC[C@H](C)[C@@H]([C@@H](CC(=O)N1CCC[C@H]1[C@H](OC)[C@@H](C)C(=O)N[C@H](C)[C@@H](O)c1ccccc1)OC)N(C)C(=O)[C@@H](NC(=O)[C@H](C(C)C)N(C)C(=O)OCc1ccc(NC(=O)[C@H](CCCNC(N)=O)NC(=O)[C@@H](NC(=O)[C@H](CCC(=O)O)NC(=O)CCOCCC(=O)NCCNc2ncc(-c3cc(C)cc(F)c3)c(N3CC[C@H]4NCCC[C@@H]4C3)c2-c2nc3ccc(Cl)cc3[nH]2)C(C)C)cc1C(=O)NCCN)C(C)C` [Compound 80], the EC50 in experiment [1] turned out to be 540 nM; on SST2, 920 nM; in experiment [2] it was 180 nM.

These data come from patent US20260007758A1, “SO[…]-2 RECEPTOR (SST2R) NON-PEPTIDE DRUG CONJUGATES AND USES THEREOF” (Crinetics Pharmaceuticals, Inc., priority 2024, published 2026).
